These results are taken from patent US4758566A, “2-(1-piperazinyl)-4-substituted phenylquinoline derivatives, processes for the preparation thereof, and pharmaceutical composition containing the same” (Dainippon Pharmaceutical Co., Ltd., priority 1984, dated 1988).

SMILES strings stand for the structures.

For data set [1] the following is noted: U.S. Pat. No. 4,237,135; cited from earlier work.
The conditions of data set [2]: U.S. Pat. No. 4,237,135; cited from earlier work. The source holds these as a separate data set.
For data set [3] the following is noted: U.S. Pat. No. 4,237,135; cited from earlier work. This is another data set of the same source.
For data set [4] the following is noted: U.S. Pat. Nos. 3,542,785 and 3,668,207; cited from earlier work.
The conditions of data set [5]: U.S. Pat. Nos. 3,542,785 and 3,668,207; cited from earlier work. This is another data set of the same source.
Data set [6] has as its system ulceration induced by exposure to stress (restraint and water immersion) in rats. The data set can be described thus: Effect on the ulceration induced by exposure to stress (restraint and water immersion) in rats, Test 2. The settings on record: stress-induced ulcer, rat, 10 mg/kg p.o. Type of data set: in vivo, rat (male Wistar). How it is done: Effect on the ulceration induced by exposure to stress (restraint and water immersion) in rats The effect evaluated by this test is considered to be fairly well correlative to inhibitory effect on gastric acid secretion. Male Wistar rats weighing about 200 g were used in groups of 5 animals each. According to the method of Takagi et al. [cf. Japan. […] After 20 hours, the animals were taken out from the water bath and sacrificed under ether anesthesia, and the stomachs were removed. The stomach was inflated with 13 ml of physiological saline and placed in a 5% formalin solution for 5 minutes. After washing with physiological saline, the stomach was cut along the greater curvature and the length (mm) of each lesion in the glandular portion was measured using a dissecting microscope (×12). The sum of the length (mm) of each lesion in a stomach was indicated as an ulcer index. The inhibitory rate was determined by comparing the ulcer index in drug-treated groups with that in control group. Test compounds were administered orally 30 minutes before the immersion. In the control group, a vehicle (a 0.5% tragacanth solution) was administered orally.

Data set [7] deals with ulceration induced by ethanol in rats. Nature of the data set: Effect on the ulceration induced by ethanol in rats (gastric cytoprotection activity), Test 1. The format is in vivo, rat (male Wistar). The settings on record: ethanol-induced ulcer, rat. How it is done:
Effect on the ulceration induced by ethanol in rats (gastric cytoprotection activity) This test was carried out according to the method of Robert [cf. […] Male Wistar rats weighing 190 g to 200 g were fasted for 24 hours and then given orally 1 ml of absolute ethanol. After 1 hour, the animals were sacrificed under ether anesthesia, and the stomachs were removed and cut along the greater curvature. The length (mm) of each lesion in the glandular portion was measured using a dissecting microscope (×12). The sum of the length (mm) of each lesion in a stomach was indicated as an ulcer index. The inhibitory rate was determined by comparing the ulcer index in drug-treated groups with that in control group. Test compounds were administered orally 30 minutes before the administration of ethanol. In the control group, a vehicle (a 0.5% tragacanth solution) was administered orally.

For another data set, the system named is Male ddY mice. Nature of the data set: Acute toxicity, Test 5. Type of data set: in vivo, mouse (male ddY). The settings on record: 7 days; for Number of dead animals/number of used animals: mouse. The text has this: Male ddY mice weighing 20 g to 25 g were used in groups of 10 animals each. Test compounds, dissolved or suspended in a 0.5% tragacanth solution, were orally administered at a prescribed dose to the animals.

In data set [8] the test system is ulceration induced by pylorus-ligation (Shay ulcer) in rats. The data set can be described thus: Effect on the ulceration induced by pylorus-ligation (Shay ulcer) in rats, Test 3. Type of data set: in vivo, rat (male Wistar). The settings on record: rat; for Ulcer index: index of 0 to 5. How it is done: Effect on the ulceration induced by pylorus-ligation (Shay ulcer) in rats […] The portion between pylorus and duodenum of each rat was ligated under ether anesthesia according to the method of Shay et al. […] Each of the animals was then allowed to stand abstained from food and water in a cage. After 18 hours, the animals were sacrificed under ether anesthesia, and the stomachs were removed and cut along the greater curvature. […] 0: no lesion 1: hemorrhage or erosion […] The inhibitory rate was determined by comparing the ulcer index in drug-treated groups with that in the control group. […] Test compounds were administered orally 30 minutes before the ligation. In the control group, a vehicle (a 0.5% tragacanth solution) was administered orally.

Data set [9] concerns hypothermia induced by reserpine. The data set can be described thus: Antireserpine activity (antagonistic effect on hypothermia induced by reserpine), Test 4. Type of data set: in vivo, mouse (male ddY). To be noted: mouse. As for the experimental part:
Antireserpine activity (antagonistic effect on hypothermia induced by reserpine)
This test was carried out according to the method of Askew [cf. Life Sci., 2, 725 (1963)].
Male ddY mice weighing 22 g to 27 g were used in groups of 5 animals each. Test compounds were administered orally to the animals, and immediately 5 mg/kg of reserpine was injected intraperitoneally. Rectal temperature of each mouse was measured 4 hours later with a thermistor (Shibaura Electric, BMG III-130). The inhibitory rate was determined by comparing the fall of rectal temperature in drug-treated groups with that in control group. In the control group, a vehicle (a 0.5% tragacanth solution) was administered orally.

Turning to `CCN1CCN(c2cc(-c3ccccc3)c3ccccc3n2)CC1` [2-(4-ethyl-1-piperazinyl)-4-phenylquinoline], in data set [1], the antitremorine activity result was “have also antitremorine activity”. The antireserpine activity result in data set [2] is listed as “have an antireserpine activity”. For the same molecule, the “inhibitory effect on spontaneous locomotor activity” value in data set [3] was “inhibitory effect on spontaneous locomotor activity”.
As for `CN1CCN(c2cc(-c3ccccc3)c3cc(Cl)ccc3n2)CC1` [6-chloro-2-(4-methyl-1-piperazinyl)-4-phenylquinoline], the antiinflammatory activity entry in data set [4] is “have antiinflammatory and diuretic activities”. For the same molecule, in data set [5], the diuretic activity result was “have antiinflammatory and diuretic activities”.
As for `Cl.Cl.OCCN1CCN(c2cc(-c3ccc(F)cc3)c3ccccc3n2)CC1` [A, 2-[4-(2-hydroxyethyl)-1-piperazinyl]-4-(4-fluorophenyl)quinoline dihydrochloride], the inhibition in vivo at 10 mg/kg amounted to 69.2% in data set [6] (po, 20 h, read-out: Inhibitory rate) and 79.5% in data set [7] (po, 1 h, 10 mg/kg p.o., read-out: Inhibitory rate). The Ulcer index in data set [6] came out at 7.4 ± 3.6 mm; in data set [7] (5 mg/kg p.o.), 31.6 ± 11.3 mm; in data set [7] (10 mg/kg p.o.), 9.8 ± 2.9 mm; in data set [7] (20 mg/kg p.o.), 9.2 ± 4.1 mm; in data set [8] (Shay ulcer, 10 mg/kg p.o.), 2.4 ± 0.4; in data set [8] (Shay ulcer, 20 mg/kg p.o.), 2 ± 0.8. The Ulcer index in data set [8] (Shay ulcer, 50 mg/kg p.o.) stood at 1.4 ± 0.2; in [8] (Shay ulcer, 100 mg/kg p.o.), 1.2 ± 0.2. The inhibition in vivo at 5 mg/kg in [7] (po, 1 h, 5 mg/kg p.o., read-out: Inhibitory rate) was 33.9%. Also, the inhibition in vivo at 20 mg/kg in data set [7] (po, 1 h, 20 mg/kg p.o., read-out: Inhibitory rate) stood at 80.8%. Further, the “death of mouse (in words)” value with Male ddY mice (250 mg/kg p.o.) is on record as “death of mouse was not observed”. Further, the results for the “Number of dead animals/number of used animals” value with Male ddY mice (250 mg/kg p.o.), in the data set with Male ddY mice (500 mg/kg p.o.) and in the data set with Male ddY mice (1000 mg/kg p.o.) were 0/10, 2/10 and 5/10, respectively. Also, the Inhibitory rate amounted to 33.3% in data set [8] (Shay ulcer, 10 mg/kg p.o.); 44.4% in [8] (Shay ulcer, 20 mg/kg p.o.); 61.1% in [8] (Shay ulcer, 50 mg/kg p.o.); 66.7% in data set [8] (Shay ulcer, 100 mg/kg p.o.); 20.6% in [9] (50 mg/kg p.o.); 65.5% in [9] (100 mg/kg p.o.). In addition, in data set [8] (po, 18 h, Shay ulcer, graphic method, read-out: ED50 (dose required to inhibit ulcer index by 50%)), the ED50 turned out to be 26.5 mg/kg. The “potency relative to cimetidine in preventive effect on Shay ulcer” value in [8] (p.o., vs cimetidine) is given as “about 10 times”.
